Laboratory results from the supplement of paper PMC10307832.

Tests used:
Assay in all cases: relative viability (nuclei count vs DMSO), 5 days (fraction); higher = more cells survive
IU1-47 + Alpelisib = compound: CC1=CC(=C(N1C2=CC=C(C=C2)Cl)C)C(=O)CN3CCCCC3 [IU1-47] + Cc1nc(NC(=O)N2CCC[C@H]2C(N)=O)sc1-c1ccnc(C(C)(C)C(F)(F)F)c1 [Alpelisib] (partner 2 µM)
Method in brief: (§1)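 The day after seeding in 1536-well plates, lung cancer cell lines were treated by pin tool with a single drug, or with a fixed anchor-drug dose together with five library-drug doses (not always all listed) in √10 steps. After 5 days, a combined fix-and-stain solution (final 0.05% Triton X-100, 1% formaldehyde, 1 ug/ml Hoechst) was added. Nuclei counted on 4× images gave relative viability as treated counts over vehicle counts, reported as the median of duplicate plates.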

IU1-47 + Olaparib = compound: CC1=CC(=C(N1C2=CC=C(C=C2)Cl)C)C(=O)CN3CCCCC3 [IU1-47] + O=C(c1cc(Cc2n[nH]c(=O)c3ccccc23)ccc1F)N1CCN(C(=O)C2CC2)CC1 [Olaparib] (partner 8 µM)
Method in brief: as §1

FG-4592 + Bortezomib = compound: Cc1nc(C(=O)NCC(=O)O)c(O)c2ccc(Oc3ccccc3)cc12 [FG-4592] + CC(C)C[C@H](NC(=O)[C@H](Cc1ccccc1)NC(=O)c1cnccn1)B(O)O [Bortezomib] (partner 0.002 µM)
Method in brief: as §1

FG-4592 + Linsitinib = compound: Cc1nc(C(=O)NCC(=O)O)c(O)c2ccc(Oc3ccccc3)cc12 [FG-4592] + C[C@]1(O)C[C@@H](c2nc(-c3ccc4ccc(-c5ccccc5)nc4c3)c3c(N)nccn32)C1 [Linsitinib] (partner 1 µM)
Method in brief: as §1

| Cell Line | relative viability (IU1-47 + Alpelisib; first compound 0.08 µM) | relative viability (IU1-47 + Alpelisib; first compound 0.253 µM) | relative viability (IU1-47 + Alpelisib; first compound 0.8 µM) | relative viability (IU1-47 + Alpelisib; first compound 2.53 µM) | relative viability (IU1-47 + Alpelisib; first compound 8 µM) | relative viability (IU1-47 + Olaparib; first compound 0.08 µM) | relative viability (IU1-47 + Olaparib; first compound 0.253 µM) | relative viability (IU1-47 + Olaparib; first compound 0.8 µM) | relative viability (IU1-47 + Olaparib; first compound 2.53 µM) | relative viability (IU1-47 + Olaparib; first compound 8 µM) | relative viability (FG-4592 + Bortezomib; first compound 0.08 µM) | relative viability (FG-4592 + Bortezomib; first compound 0.253 µM) | relative viability (FG-4592 + Bortezomib; first compound 0.8 µM) | relative viability (FG-4592 + Bortezomib; first compound 2.53 µM) | relative viability (FG-4592 + Bortezomib; first compound 8 µM) | relative viability (FG-4592 + Linsitinib; first compound 0.08 µM) | relative viability (FG-4592 + Linsitinib; first compound 0.253 µM) | relative viability (FG-4592 + Linsitinib; first compound 0.8 µM) | relative viability (FG-4592 + Linsitinib; first compound 2.53 µM) | relative viability (FG-4592 + Linsitinib; first compound 8 µM) |
| --- | --- | --- | --- | --- | --- | --- | --- | --- | --- | --- | --- | --- | --- | --- | --- | --- | --- | --- | --- | --- |
| NCI-H661 | 0.909 | 0.603 | 0.581 | 0.593 | 0.404 | 0.798 | 0.735 | 0.807 | 0.801 | 0.589 | 0.637 | 0.858 | 0.723 | 0.682 | 0.638 | 0.475 | 0.588 | 0.55 | 0.678 | 0.446 |
| NCI-H1734 | 0.645 | 0.714 | 0.65 |  | 0.708 | 0.669 | 0.75 | 0.631 | 0.608 | 0.656 | 0.743 | 0.956 | 0.861 | 0.838 | 0.951 | 0.896 | 0.814 | 0.716 | 0.875 | 0.927 |
| LXF-289 | 1.06 | 1.09 | 1.12 | 1.06 | 1.05 | 1.08 | 1.15 | 1.09 | 0.993 | 0.862 | 1.02 | 0.886 | 1.05 | 0.97 | 0.973 | 0.972 | 0.947 | 1.02 | 0.968 | 1.02 |
| H3255 | 0.696 | 0.708 | 0.754 | 0.818 | 0.671 | 0.64 | 0.609 | 0.569 | 0.54 | 0.561 | 0.816 | 0.606 | 0.752 | 0.744 | 0.906 | 0.963 | 0.868 | 0.896 | 1.07 | 0.959 |
| 201T | 1.08 | 1.04 | 0.938 |  | 1.04 | 0.829 | 0.869 | 0.854 | 0.838 | 0.666 | 1.11 | 1.12 | 1.04 | 1.1 | 1.08 | 0.943 | 0.963 | 0.897 | 1.08 | 1.02 |
| NCI-H2126 | 0.759 | 0.814 | 0.78 | 0.55 | 0.707 | 0.972 | 0.945 | 0.89 | 0.898 | 0.762 | 1.09 | 1.1 | 1.12 | 1.12 | 1.13 | 0.68 | 0.73 | 0.593 | 0.699 | 0.655 |
| HOP-62 | 1.16 | 1.21 | 1.05 | 1.11 | 1.01 | 0.428 | 0.622 | 0.404 | 0.554 | 0.604 | 0.602 | 0.816 | 0.628 | 0.754 | 0.985 | 0.947 | 1.03 | 0.921 | 1.03 | 0.931 |
| CAL-12T | 1.31 | 1.39 | 1.47 | 1.18 | 0.823 | 0.705 | 0.726 | 0.747 | 0.797 | 0.863 | 1.05 | 1.07 | 0.601 | 1.15 | 0.902 | 0.709 | 0.798 | 0.836 | 0.775 | 0.716 |
| NCI-H520 | 0.947 | 0.948 | 1.03 | 0.907 | 0.726 | 0.32 | 0.391 | 0.269 | 0.349 | 0.309 | 0.53 | 0.612 | 0.496 | 0.459 | 0.31 | 0.85 | 0.895 | 1.04 | 0.953 | 0.764 |
| NCI-H1755 | 1.04 | 1.03 | 1.03 | 0.978 | 0.8 | 0.914 | 0.872 | 0.883 | 0.948 | 0.829 | 0.918 | 1.01 | 0.907 | 1.02 | 0.998 | 0.993 | 0.961 | 0.963 | 1.04 | 1.06 |
| NCI-H2023 | 0.6 | 0.531 | 0.511 | 0.627 | 0.519 | 0.454 | 0.639 | 0.49 | 0.44 | 0.479 | 1.07 | 0.924 | 0.664 | 0.763 | 0.679 | 0.611 | 0.575 | 0.646 | 0.77 | 0.685 |
| NCI-H2009 | 1.24 | 1.18 | 1.13 | 1.18 | 1.21 | 0.662 | 0.678 | 0.612 | 0.804 | 0.65 | 1.02 | 0.934 | 0.948 | 0.826 | 0.882 | 1.19 | 1.08 | 1.28 | 1.21 | 1.19 |
